The source of these data is ChEMBL document CHEMBL5647694, “Novel orally bioavailable EZH1/2 dual inhibitors with greater antitumor efficacy than an EZH2 selective inhibitor” (Cancer Sci, 2017).

Active and inactive are the calls of the source. No cut-off for these calls is given here. Bounds are passed on as bounds.

A word on the IC50: it is the concentration that gives 50% inhibition. As a reminder, the GI50 is the concentration at which growth is held to half of that of the control. In general, inhibition refers to the share of the control response that was lost under treatment.

Data set [1] can be described thus: Toxicity in Crl:CD Sprague-Dawley rat assessed as basophil count in blood at 100 mg/kg, po administered daily for 14 days (reference value: 0.023+/-0.018 10^3/uL). Format: organism-based. The note with it: in vivo, 336 h, time 14 day.
Data set [2] is described as follows: Toxicity in Crl:CD Sprague-Dawley rat assessed as neutrophil count in blood at 100 mg/kg, po administered daily for 14 days (reference value: 1.73+/-0.276 10^3/uL). Format: organism-based. Conditions: in vivo, 336 h, time 14 day.
For data set [3], the system named is KARPAS-422. Kind of data set: Antitumor activity against human KARPAS-422 cells xenografted in CB17/Icr-Prkdcscid/CrlCrlj mouse assessed as inhibition of tumor growth at 50 mg/kg, po BID for 14 days. Conditions: time 14.0 day. Format: functional, organism-based. (In general: Xenograft models place foreign cells or tissue in a host animal.)
Data set [4] is described as follows: Toxicity in Crl:CD Sprague-Dawley rat assessed as reticulocyte percentile in blood at 100 mg/kg, po administered daily for 14 days (reference value: 4.68+/-0.802%). The format is organism-based. The note with it: in vivo, 336 h, time 14 day.
The nature of data set [5]: Toxicity in Crl:CD Sprague-Dawley rat assessed as aspartate aminotransferase level in blood at 100 mg/kg, po administered daily for 14 days (reference value: 72+/-5.03 U/L). Format: organism-based. The note with it: in vivo, 336 h, time 14 day.
In data set [6] the test system is KARPAS-422. Kind of data set: Antitumor activity against human KARPAS-422 cells xenografted in CB17/Icr-Prkdcscid/CrlCrlj mouse assessed as inhibition of tumor growth administered orally BID for 14 days. The format is functional, cell-based. The note with it: dose 3.1-50 mg/kg, route po, time 14.0 day.
For data set [7], the target named is Histone-arginine methyltransferase CARM1 (Homo sapiens, UniProt Q86X55). Kind of data set: Inhibition of human PRMT4 using Histone H3 and [3H]SAM as substrate incubated for 30 mins to 1 hr by HotSpot kinase assay.
Sequence of Histone-arginine methyltransferase CARM1 (Q86X55 whole entry): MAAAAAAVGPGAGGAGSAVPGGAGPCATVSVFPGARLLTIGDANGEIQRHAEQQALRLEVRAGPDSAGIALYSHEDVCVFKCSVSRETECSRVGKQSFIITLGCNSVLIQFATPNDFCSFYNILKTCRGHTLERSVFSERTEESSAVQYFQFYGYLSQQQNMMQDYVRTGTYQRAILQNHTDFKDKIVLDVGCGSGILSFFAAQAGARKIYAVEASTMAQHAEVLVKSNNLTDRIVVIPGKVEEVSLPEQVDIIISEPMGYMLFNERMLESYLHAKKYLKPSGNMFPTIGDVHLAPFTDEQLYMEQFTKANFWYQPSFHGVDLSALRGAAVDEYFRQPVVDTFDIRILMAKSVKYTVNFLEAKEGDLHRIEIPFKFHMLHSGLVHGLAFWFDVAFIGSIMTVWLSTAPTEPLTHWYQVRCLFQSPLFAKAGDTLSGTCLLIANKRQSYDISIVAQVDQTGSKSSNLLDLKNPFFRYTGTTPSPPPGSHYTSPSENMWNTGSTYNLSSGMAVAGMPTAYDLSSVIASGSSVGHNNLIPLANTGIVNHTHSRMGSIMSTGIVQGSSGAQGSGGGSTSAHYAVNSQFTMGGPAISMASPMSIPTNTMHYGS
The next data set relates to ECC10. Kind of data set: Antitumor activity against human ECC10 cells assessed as cell growth inhibition treated for 10 to 15 days. Format: functional. The note with it: time 10-15 day.
A further data set addresses PRMT5/MEP50 complex (Homo sapiens, UniProt O14744+Q9BQA1). Kind of data set: Inhibition of human PRMT5/MEP50 using Histone H2A and [3H]SAM as substrate incubated for 30 mins to 1 hr by HotSpot kinase assay. The format is protein-complex assay.
In data set [8] the target is Histone-lysine N-methyltransferase, H3 lysine-79 specific (Homo sapiens, UniProt Q8TEK3). Kind of data set: Inhibition of human DOT1L using Nucleosomes and [3H]SAM as substrate incubated for 30 mins to 1 hr by HotSpot kinase assay.
Another data set relates to MDA-MB-453. Kind of data set: Antitumor activity against human MDA-MB-453 cells assessed as cell growth inhibition treated for 10 to 15 days. Format: functional. Conditions: time 10-15 day.
The subject of another data set is HCC38. Kind of data set: Antitumor activity against human HCC38 cells assessed as cell growth inhibition treated for 10 to 15 days. The format is functional. Conditions: time 10-15 day.
The subject of the next data set is CCRF-CEM. Kind of data set: Antitumor activity against human CCRF-CEM cells assessed as cell growth inhibition treated for 10 to 15 days. Format: functional. The note with it: time 10-15 day.
The nature of data set [9]: Antitumor activity against human COV644 cells assessed as cell growth inhibition treated for 10 to 15 days. Format: functional. Conditions: time 10-15 day.
Another data set has as its system GA-10. Kind of data set: Antitumor activity against human GA-10 cells assessed as cell growth inhibition treated for 10 to 15 days. The format is functional. The note with it: time 10-15 day.
Another data set deals with JeKo-1. Kind of data set: Antitumor activity against human JeKo-1 cells assessed as cell growth inhibition treated for 10 to 15 days. Format: functional. The note with it: time 10-15 day.
The target of data set [10] is Histone-lysine N-methyltransferase EHMT2 (Homo sapiens, UniProt Q96KQ7). Kind of data set: Inhibition of human G9a using Histone H3 (1-21 residues) and [3H]SAM as substrate incubated for 30 mins to 1 hr by HotSpot kinase assay.
The test system of another data set is CAMA-1. Kind of data set: Antitumor activity against human CAMA-1 cells assessed as cell growth inhibition treated for 10 to 15 days. Format: functional. Conditions: time 10-15 day.
The next data set has as its system DU-4475. Kind of data set: Antitumor activity against human DU-4475 cells assessed as cell growth inhibition treated for 10 to 15 days. Format: functional. The note with it: time 10-15 day.
The next data set relates to H9. Kind of data set: Antitumor activity against human H9 cells assessed as cell growth inhibition treated for 10 to 15 days. The format is functional. The note with it: time 10-15 day.
For another data set, the system named is MLMA. Kind of data set: Antitumor activity against human MLMA cells assessed as cell growth inhibition treated for 10 to 15 days. Format: functional. Conditions: time 10-15 day.
The next data set has as its system DB. Kind of data set: Antitumor activity against human DB cells assessed as cell growth inhibition treated for 10 to 15 days. Format: functional. The note with it: time 10-15 day.
Data set [11] deals with Serine/threonine-protein kinase WNK1 (Homo sapiens) (UniProt Q9H4A3). Kind of data set: Inhibition of N-terminal GST-fused human WNK1 catalytic domain (1 to 491 residues) expressed in baculovirus expression system using SPAKtide as substrate at 1 uM in presence of ATP by Mobility shift assay.
For the next data set, the system named is NCI-H520. Kind of data set: Antitumor activity against human NCI-H520 cells assessed as cell growth inhibition treated for 10 to 15 days. Format: functional. Conditions: time 10-15 day.
The next data set has as its system NCI-H1092. Kind of data set: Antitumor activity against human NCI-H1092 cells assessed as cell growth inhibition treated for 10 to 15 days. The format is functional. The note with it: time 10-15 day.
Another data set concerns HuT78. Kind of data set: Antitumor activity against human HuT78 cells assessed as cell growth inhibition treated for 10 to 15 days. The format is functional. Conditions: time 10-15 day.
The target in data set [12] is Histone-lysine N-methyltransferase 2B (Homo sapiens, UniProt Q9UMN6). Kind of data set: Inhibition of human MLL4 using Core Histone and [3H]SAM as substrate incubated for 30 mins to 1 hr by HotSpot kinase assay.
Sequence of Histone-lysine N-methyltransferase 2B (Q9UMN6 whole entry): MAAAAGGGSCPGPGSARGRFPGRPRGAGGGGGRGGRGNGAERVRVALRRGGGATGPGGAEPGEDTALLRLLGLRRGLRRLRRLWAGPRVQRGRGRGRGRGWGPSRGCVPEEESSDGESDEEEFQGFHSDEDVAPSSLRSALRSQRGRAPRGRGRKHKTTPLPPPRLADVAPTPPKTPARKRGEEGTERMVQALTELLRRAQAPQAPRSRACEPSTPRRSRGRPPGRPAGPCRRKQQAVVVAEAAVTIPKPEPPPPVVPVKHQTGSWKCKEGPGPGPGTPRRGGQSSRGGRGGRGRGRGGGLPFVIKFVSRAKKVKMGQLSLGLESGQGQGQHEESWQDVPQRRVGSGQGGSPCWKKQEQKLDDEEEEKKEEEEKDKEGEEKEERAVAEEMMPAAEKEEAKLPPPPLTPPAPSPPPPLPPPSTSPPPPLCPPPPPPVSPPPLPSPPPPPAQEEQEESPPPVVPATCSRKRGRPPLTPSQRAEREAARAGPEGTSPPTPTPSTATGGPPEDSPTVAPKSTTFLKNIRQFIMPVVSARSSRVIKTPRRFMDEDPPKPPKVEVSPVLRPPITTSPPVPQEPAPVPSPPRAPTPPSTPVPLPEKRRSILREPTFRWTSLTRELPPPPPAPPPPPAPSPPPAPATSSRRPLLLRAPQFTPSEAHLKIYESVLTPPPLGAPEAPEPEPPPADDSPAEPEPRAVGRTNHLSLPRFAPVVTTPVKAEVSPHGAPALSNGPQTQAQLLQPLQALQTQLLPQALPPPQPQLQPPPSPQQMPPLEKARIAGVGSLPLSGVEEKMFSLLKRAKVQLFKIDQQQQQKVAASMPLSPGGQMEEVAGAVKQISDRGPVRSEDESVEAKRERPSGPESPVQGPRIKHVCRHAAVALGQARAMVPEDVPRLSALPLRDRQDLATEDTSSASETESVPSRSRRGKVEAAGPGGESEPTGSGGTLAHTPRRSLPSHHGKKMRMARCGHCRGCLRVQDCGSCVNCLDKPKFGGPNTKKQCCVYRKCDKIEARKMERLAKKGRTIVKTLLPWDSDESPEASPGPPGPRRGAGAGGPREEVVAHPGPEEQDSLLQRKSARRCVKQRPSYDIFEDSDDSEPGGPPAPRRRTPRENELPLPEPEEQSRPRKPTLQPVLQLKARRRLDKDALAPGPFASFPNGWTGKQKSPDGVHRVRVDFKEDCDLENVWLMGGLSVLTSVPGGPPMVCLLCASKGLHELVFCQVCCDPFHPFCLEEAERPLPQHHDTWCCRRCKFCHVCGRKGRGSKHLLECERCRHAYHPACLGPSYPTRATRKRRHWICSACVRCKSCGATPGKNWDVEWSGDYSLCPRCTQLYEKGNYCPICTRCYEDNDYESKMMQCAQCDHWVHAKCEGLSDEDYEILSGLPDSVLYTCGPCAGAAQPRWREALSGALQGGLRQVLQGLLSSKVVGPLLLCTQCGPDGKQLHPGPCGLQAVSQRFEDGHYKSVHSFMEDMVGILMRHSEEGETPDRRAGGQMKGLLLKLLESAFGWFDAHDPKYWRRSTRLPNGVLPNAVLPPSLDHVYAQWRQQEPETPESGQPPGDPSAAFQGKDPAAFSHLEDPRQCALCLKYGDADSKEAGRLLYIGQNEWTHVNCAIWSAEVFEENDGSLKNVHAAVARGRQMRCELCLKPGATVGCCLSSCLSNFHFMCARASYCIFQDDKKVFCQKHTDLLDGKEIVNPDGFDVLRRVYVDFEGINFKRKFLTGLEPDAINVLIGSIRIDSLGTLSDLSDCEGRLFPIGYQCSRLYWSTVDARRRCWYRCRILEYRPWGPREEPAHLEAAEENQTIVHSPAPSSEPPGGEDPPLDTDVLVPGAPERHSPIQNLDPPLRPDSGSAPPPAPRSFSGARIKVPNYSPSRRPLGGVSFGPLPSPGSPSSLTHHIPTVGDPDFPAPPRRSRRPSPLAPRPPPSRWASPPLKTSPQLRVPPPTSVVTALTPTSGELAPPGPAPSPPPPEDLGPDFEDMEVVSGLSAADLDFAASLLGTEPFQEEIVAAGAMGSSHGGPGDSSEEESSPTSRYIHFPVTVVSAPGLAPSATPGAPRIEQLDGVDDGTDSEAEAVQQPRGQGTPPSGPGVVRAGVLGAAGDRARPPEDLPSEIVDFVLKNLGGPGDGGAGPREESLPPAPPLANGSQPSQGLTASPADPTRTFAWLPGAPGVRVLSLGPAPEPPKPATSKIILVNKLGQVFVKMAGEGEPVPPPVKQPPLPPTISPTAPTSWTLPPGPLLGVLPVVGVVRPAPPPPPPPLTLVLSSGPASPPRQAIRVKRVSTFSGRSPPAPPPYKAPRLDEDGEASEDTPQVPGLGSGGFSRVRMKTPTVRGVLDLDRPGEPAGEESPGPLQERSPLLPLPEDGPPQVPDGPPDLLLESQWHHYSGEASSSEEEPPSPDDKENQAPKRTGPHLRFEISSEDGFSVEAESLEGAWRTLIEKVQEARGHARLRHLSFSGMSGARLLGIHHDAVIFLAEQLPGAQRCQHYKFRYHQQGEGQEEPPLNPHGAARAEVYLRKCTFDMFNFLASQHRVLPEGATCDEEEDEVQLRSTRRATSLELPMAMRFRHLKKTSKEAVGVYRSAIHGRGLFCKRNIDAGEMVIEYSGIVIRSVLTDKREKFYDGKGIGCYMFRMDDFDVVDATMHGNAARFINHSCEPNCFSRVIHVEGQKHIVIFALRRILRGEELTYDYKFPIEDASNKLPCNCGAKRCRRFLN
The subject of the next data set is OCI-LY19. Kind of data set: Antitumor activity against human OCILY19 cells assessed as cell growth inhibition treated for 10 to 15 days. The format is functional. The note with it: time 10-15 day.
The subject of the next data set is RKO. Kind of data set: Antitumor activity against human RKO cells assessed as cell growth inhibition treated for 10 to 15 days. The format is functional. The note with it: time 10-15 day.
A further data set deals with HCC1569. Kind of data set: Antitumor activity against human HCC1569 cells assessed as cell growth inhibition treated for 10 to 15 days. Format: functional. The note with it: time 10-15 day.
For the next data set, the system named is SK-BR-3. Kind of data set: Antitumor activity against human SK-BR-3 cells assessed as cell growth inhibition treated for 10 to 15 days. The format is functional. The note with it: time 10-15 day.
The subject of another data set is SW48. Kind of data set: Antitumor activity against human SW48 cells assessed as cell growth inhibition treated for 10 to 15 days. Format: functional. Conditions: time 10-15 day.
In a further data set the test system is T47D. Kind of data set: Antitumor activity against human T47D cells assessed as cell growth inhibition treated for 10 to 15 days. Conditions: time 10-15 day. The format is functional.
Data set [13] addresses Histone-lysine N-methyltransferase EHMT1 (Homo sapiens, UniProt Q9H9B1). Kind of data set: Inhibition of human GLP using Histone H3 (1-21 residues) and [3H]SAM as substrate incubated for 30 mins to 1 hr by HotSpot kinase assay.
For the next data set, the system named is Panc1005. Kind of data set: Antitumor activity against human Panc1005 cells assessed as cell growth inhibition treated for 10 to 15 days. Format: functional. The note with it: time 10-15 day.
The subject of a further data set is HCC1937. Kind of data set: Antitumor activity against human HCC1937 cells assessed as cell growth inhibition treated for 10 to 15 days. Format: functional. Conditions: time 10-15 day.
The next data set deals with MOLM-14. Kind of data set: Antitumor activity against human MOLM-14 cells assessed as cell growth inhibition treated for 10 to 15 days. The format is functional. The note with it: time 10-15 day.
Another data set deals with A-427. Kind of data set: Antitumor activity against human A-427 cells assessed as cell growth inhibition treated for 10 to 15 days. The format is functional. The note with it: time 10-15 day.
The target in data set [14] is Histone-lysine N-methyltransferase SETD7 (Homo sapiens, UniProt Q8WTS6). Kind of data set: Inhibition of human SET7/9 using Core Histone and [3H]SAM as substrate incubated for 30 mins to 1 hr by HotSpot kinase assay.
Sequence of Histone-lysine N-methyltransferase SETD7 (Q8WTS6 whole entry): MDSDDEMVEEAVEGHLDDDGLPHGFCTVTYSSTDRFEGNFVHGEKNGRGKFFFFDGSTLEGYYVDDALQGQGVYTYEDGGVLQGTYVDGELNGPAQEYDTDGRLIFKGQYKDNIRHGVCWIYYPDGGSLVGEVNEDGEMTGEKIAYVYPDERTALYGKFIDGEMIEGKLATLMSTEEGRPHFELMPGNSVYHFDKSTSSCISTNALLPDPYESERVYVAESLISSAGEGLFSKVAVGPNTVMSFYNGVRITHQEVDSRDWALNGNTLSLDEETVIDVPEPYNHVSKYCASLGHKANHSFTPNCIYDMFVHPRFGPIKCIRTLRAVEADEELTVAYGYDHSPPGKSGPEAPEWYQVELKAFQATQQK
Another data set has as its system SUP-B15. Kind of data set: Antitumor activity against human SUP-B15 cells assessed as cell growth inhibition treated for 10 to 15 days. Format: functional. Conditions: time 10-15 day.
In another data set the test system is BT-20. Kind of data set: Antitumor activity against human BT-20 cells assessed as cell growth inhibition treated for 10 to 15 days. Format: functional. Conditions: time 10-15 day.

Sequence of Histone-lysine N-methyltransferase EHMT1 (Q9H9B1 whole entry, the tested form may be a part): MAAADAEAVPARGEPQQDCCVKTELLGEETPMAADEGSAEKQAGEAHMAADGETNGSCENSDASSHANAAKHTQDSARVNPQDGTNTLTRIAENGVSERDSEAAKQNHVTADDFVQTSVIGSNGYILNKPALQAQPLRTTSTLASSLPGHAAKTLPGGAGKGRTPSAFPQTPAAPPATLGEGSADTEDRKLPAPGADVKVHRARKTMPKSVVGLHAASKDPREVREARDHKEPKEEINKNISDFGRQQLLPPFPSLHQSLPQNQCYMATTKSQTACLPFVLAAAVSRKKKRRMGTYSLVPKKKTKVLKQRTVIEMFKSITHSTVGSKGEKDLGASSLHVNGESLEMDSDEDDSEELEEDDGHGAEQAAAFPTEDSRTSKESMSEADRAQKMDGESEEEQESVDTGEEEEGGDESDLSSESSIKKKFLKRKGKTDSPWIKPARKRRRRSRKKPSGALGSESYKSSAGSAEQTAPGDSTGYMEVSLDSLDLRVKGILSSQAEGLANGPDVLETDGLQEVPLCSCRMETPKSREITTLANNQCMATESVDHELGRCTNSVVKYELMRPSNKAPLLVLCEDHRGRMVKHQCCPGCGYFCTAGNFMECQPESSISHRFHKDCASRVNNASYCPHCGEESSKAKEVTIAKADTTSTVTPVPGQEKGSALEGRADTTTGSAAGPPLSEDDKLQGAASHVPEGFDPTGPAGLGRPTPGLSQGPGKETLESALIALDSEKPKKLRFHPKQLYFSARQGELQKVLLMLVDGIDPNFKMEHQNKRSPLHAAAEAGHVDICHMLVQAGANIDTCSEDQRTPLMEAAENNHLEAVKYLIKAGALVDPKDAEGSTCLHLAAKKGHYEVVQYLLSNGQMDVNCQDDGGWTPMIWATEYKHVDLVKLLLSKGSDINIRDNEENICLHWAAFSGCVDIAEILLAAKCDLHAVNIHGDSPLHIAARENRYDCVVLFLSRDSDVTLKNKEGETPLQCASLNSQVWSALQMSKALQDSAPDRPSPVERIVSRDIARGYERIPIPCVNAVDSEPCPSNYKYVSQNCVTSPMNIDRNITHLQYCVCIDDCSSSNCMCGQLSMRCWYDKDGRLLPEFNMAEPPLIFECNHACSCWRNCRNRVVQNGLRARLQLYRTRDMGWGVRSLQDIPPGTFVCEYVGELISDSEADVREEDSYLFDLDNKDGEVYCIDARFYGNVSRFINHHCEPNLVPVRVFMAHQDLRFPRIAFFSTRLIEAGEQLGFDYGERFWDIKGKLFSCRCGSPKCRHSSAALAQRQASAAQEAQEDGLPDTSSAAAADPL

With `Cc1cc(C)c(CNC(=O)c2cc(Br)c3c(c2C)O[C@@](C)([C@H]2CC[C@H](N(C)C)CC2)O3)c(=O)[nH]1`, the Activity was 0.01 10^3 /uL in data set [1]; 0.583 10^3 /uL in [2]; 4.48% in data set [4]; 71.8 U/L in [5]; “Dose-Dependent Effect” in the data set on KARPAS-422 [6]. The result in the data set on KARPAS-422 [3] was Active.
For the molecule `Cc1cc(C)c(CNC(=O)c2cc(Cl)c3c(c2C)O[C@@](C)([C@H]2CC[C@H](N(C)C)CC2)O3)c(=O)[nH]1` [VALEMETOSTAT], the IC50 (in data set [7]; against PRMT5/MEP50 complex; in [8]; in [10]; in [12]; in data set [13]) was 100 µM in each case. The same molecule came in with an IC50 in data set [14] of 100 µM. The GI50 was 0.0845 µM in the data set with ECC10; 0.124 µM in the data set on MDA-MB-453; above 1 µM in the data set with HCC38; above 1 µM in the data set on CCRF-CEM; above 1 µM in [9]; 0.0149 µM in the data set on GA-10. The GI50 in the data set with JeKo-1 is 0.0922 µM; with CAMA-1, 0.00656 µM; in the data set on DU-4475 it was above 1 µM; in the data set on H9 it was 0.00958 µM; in the data set on MLMA it was 0.273 µM; with DB, 0.00411 µM. For the same molecule, the GI50 with NCI-H520, in the data set on NCI-H1092, in the data set on HuT78, with OCI-LY19, in the data set on RKO and in the data set with HCC1569 was above 1 µM in each case. Further, the GI50 is 0.00638 µM with SK-BR-3; above 1 µM with SW48; above 1 µM with T47D; above 1 µM in the data set with Panc1005; above 1 µM in the data set on HCC1937; 0.07 µM in the data set with MOLM-14. In addition, the GI50 in the data set with A-427 is above 1 µM; in the data set on SUP-B15, 0.0243 µM; in the data set on BT-20, above 1 µM. The inhibition in data set [11] amounted to 3.4%.
